# US7652047B2, “Phenylamino isothiazole carboxamidines as MEK inhibitors” (Ardea Biosciences, Inc., priority 2005, dated 2010)
# Target: T1, MEK1^CA (human GST-MEK1, constitutively active, Ser218Asp and Ser222Asp) (Homo sapiens, UniProt Q02750, S218D/S222D)
# T1 construct: GST; made in house; host or cells: Escherichia coli
# Experiment: MEK1 enzymatic activity assay (MEK1^CA / ERK2 / MBP, [γ-33P]ATP incorporation)
# Type: biochemical
# Details: Table 1, compounds of formula I; read-out: Avg IC50
# Procedure, shortened: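 Cascade assay: 25 µl reactions with 0.002 nmol E. coli-expressed GST-MEK1 S218D/S222D, 0.02 nmol His-tagged mouse ERK2, 0.25 nmol MBP, 0.25 nmol unlabeled ATP and 0.1 µCi [γ-33P]ATP. Compound preincubated 30 min at ambient temperature with MEK1/ERK2; stopped with TCA, 33P-labelled protein filter-captured and scintillation-counted.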
# T1 sequence (Q02750 whole entry S218D/S222D): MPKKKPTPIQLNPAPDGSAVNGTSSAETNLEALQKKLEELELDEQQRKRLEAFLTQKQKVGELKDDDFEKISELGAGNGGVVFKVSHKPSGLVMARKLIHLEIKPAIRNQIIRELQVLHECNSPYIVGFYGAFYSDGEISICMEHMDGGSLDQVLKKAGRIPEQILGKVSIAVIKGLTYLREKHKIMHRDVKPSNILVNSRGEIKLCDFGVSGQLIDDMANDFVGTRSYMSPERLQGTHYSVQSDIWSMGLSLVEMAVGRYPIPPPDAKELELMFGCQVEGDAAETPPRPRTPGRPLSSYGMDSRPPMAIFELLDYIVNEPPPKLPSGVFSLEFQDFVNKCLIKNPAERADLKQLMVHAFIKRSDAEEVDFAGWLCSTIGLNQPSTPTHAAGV
row,IC50,Compound
1,> 500 nM,CNC(=N)c1c(O)nsc1Nc1ccc(Oc2ccc(F)cc2)c(Br)c1 [compound 230]
2,100 to 500 nM,CNC(=N)c1c(O)nsc1Nc1ccc(Oc2ccc(Cl)cc2Cl)cc1 [compound 231]
3,1 to 100 nM,CC(C)NC(=N)c1c(O)nsc1Nc1ccc(Oc2ccc(Cl)cc2Cl)cc1 [compound 232]
4,100 to 500 nM,CC(CO)NC(=N)c1c(O)nsc1Nc1cc(Cl)cc(Cl)c1 (stereo not drawn) [compound 233]
5,100 to 500 nM,CC(C)NC(=N)c1c(O)nsc1Nc1ccc(C(=O)c2ccccc2)cc1 [compound 234]
6,100 to 500 nM,CC(CO)NC(=N)c1c(O)nsc1Nc1ccc(/C=C/c2ccccc2)cc1 (stereo not drawn) [compound 240]
7,100 to 500 nM,CC(C)NC(=N)c1c(O)nsc1Nc1ccc(/C=C/c2ccccc2)cc1 [compound 241]
8,100 to 500 nM,CC(C)NC(=N)c1c(O)nsc1Nc1ccc(Oc2ccc(F)cc2)c(Br)c1 [compound 242]
9,100 to 500 nM,CC(C)NC(=N)c1c(O)nsc1Nc1ccc(O)c(Cl)c1 [compound 243]
10,> 500 nM,CC(C)NC(=N)c1c(O)nsc1Nc1ccc(S(=O)(=O)c2ccccc2)cc1 [compound 244]
11,1 to 100 nM,Cc1ccc(Oc2ccc(Nc3snc(O)c3C(=N)NC(C)C)cc2)cc1 [compound 246]
12,100 to 500 nM,Cc1ccc(Oc2ccc(Nc3snc(O)c3C(=N)NC(C)CO)cc2)cc1 (stereo not drawn) [compound 247]
13,1 to 100 nM,CC(C)NC(=N)c1c(O)nsc1Nc1ccc(Oc2cc(Cl)cc(Cl)c2)cc1 [compound 248]
14,1 to 100 nM,CC(C)NC(=N)c1c(O)nsc1Nc1ccc(Oc2cccc(Cl)c2)cc1 [compound 249]
15,1 to 100 nM,CC(C)NC(=N)c1c(O)nsc1Nc1ccc(Oc2cccc(Br)c2)cc1 [compound 250]
16,1 to 100 nM,CC(CO)NC(=N)c1c(O)nsc1Nc1ccc(Oc2cccc(Br)c2)cc1 (stereo not drawn) [compound 251]
17,1 to 100 nM,CC(CO)NC(=N)c1c(O)nsc1Nc1ccc(Oc2cccc(Cl)c2)cc1 (stereo not drawn) [compound 252]
18,> 500 nM,CC(C)NC(=N)c1c(O)nsc1Nc1ccc(OC2CCNCC2)cc1 [compound 253]
19,1 to 100 nM,CC(C)NC(=N)c1c(O)nsc1Nc1ccc(Sc2ccccc2)cc1 [compound 255]
20,> 500 nM,CC(C)NC(=N)c1c(O)nsc1Nc1ccc(Oc2ccccc2)nc1 [compound 257]
21,> 500 nM,CC(CO)NC(=N)c1c(O)nsc1Nc1ccc(Oc2ccccc2)nc1 (stereo not drawn) [compound 258]

row,IC50,Compound
1,> 500 nM,Cc1ccc(Oc2ccc(Nc3snc(O)c3C(=N)NC(C)C)cc2)cn1 [compound 259]
2,100 to 500 nM,CC(C)NC(=N)c1c(O)nsc1Nc1ccc(Oc2cccc(N(C)C)c2)cc1 [compound 260]
3,> 500 nM,Cc1cc(C#N)cc(C)c1Oc1ccc(Nc2snc(O)c2C(=N)NC(C)C)cc1 [compound 262]
4,> 500 nM,CC(C)NC(=N)c1c(O)nsc1Nc1ccc(Cl)nc1 [compound 264]
5,> 500 nM,CC(CO)NC(=N)c1c(O)nsc1Nc1ccc(OCc2ccccc2)cc1 (stereo not drawn) [compound 265]
6,1 to 100 nM,Cc1cc(C)cc(Oc2ccc(Nc3snc(O)c3C(=N)NC(C)C)cc2)c1 [compound 267]
7,100 to 500 nM,Cc1cc(C)cc(Oc2ccc(Nc3snc(O)c3C(=N)NC(C)CO)cc2)c1 (stereo not drawn) [compound 268]
8,1 to 100 nM,CC(C)NC(=N)c1c(O)nsc1Nc1ccc(Oc2cccc(C(F)(F)F)c2Cl)cc1 [compound 269]
9,> 500 nM,COc1cccc(F)c1Oc1ccc(Nc2snc(O)c2C(=N)NC(C)C)cc1 [compound 270]
10,> 500 nM,Cc1cccc(C)c1Oc1ccc(Nc2snc(O)c2C(=N)NC(C)C)cc1 [compound 271]
11,1 to 100 nM,CC(C)NC(=N)c1c(O)nsc1Nc1ccc(Oc2cccc(F)c2)cc1 [compound 272]
12,1 to 100 nM,CC(CO)NC(=N)c1c(O)nsc1Nc1ccc(Oc2cccc(F)c2)cc1 (stereo not drawn) [compound 273]
13,1 to 100 nM,CC(C)NC(=N)c1c(O)nsc1Nc1ccc(Oc2cccc(C(F)(F)F)c2)cc1 [compound 275]
14,> 500 nM,Cc1cccc(C)c1Oc1ccc(Nc2snc(O)c2C(=N)NC(C)CO)cc1F (stereo not drawn) [compound 276]
15,1 to 100 nM,CC(C)NC(=N)c1c(O)nsc1Nc1ccc(Oc2ccccc2Cl)c(F)c1 [compound 277]
16,1 to 100 nM,CC(CO)NC(=N)c1c(O)nsc1Nc1ccc(Oc2ccccc2Cl)c(F)c1 (stereo not drawn) [compound 278]
17,1 to 100 nM,Cc1cccc(C)c1Oc1ccc(Nc2snc(O)c2C(=N)NC(C)C)cc1F [compound 279]
18,1 to 100 nM,CC(CO)NC(=N)c1c(O)nsc1Nc1ccc(Oc2ccccc2Br)c(Cl)c1 (stereo not drawn) [compound 280]
19,100 to 500 nM,COc1cccc(F)c1Oc1ccc(Nc2snc(O)c2C(=N)NC(C)CO)cc1 (stereo not drawn) [compound 281]
20,> 500 nM,Cc1cccc(C)c1Oc1ccc(Nc2snc(O)c2C(=N)NC(C)CO)cc1 (stereo not drawn) [compound 282]
21,100 to 500 nM,CC(CO)NC(=N)c1c(O)nsc1Nc1ccc(Oc2cccc(C(C)(C)C)c2)cc1 (stereo not drawn) [compound 284]

row,IC50,Compound
1,> 500 nM,Cc1cc(C#N)cc(C)c1Oc1ccc(Nc2snc(O)c2C(=N)NC(C)C)cc1Cl [compound 285]
2,1 to 100 nM,CC(C)NC(=N)c1c(O)nsc1Nc1ccc(Oc2ccccc2)c(Cl)c1 [compound 286]
3,1 to 100 nM,CC(C)NC(=N)c1c(O)nsc1Nc1ccc(Oc2cc(F)cc(F)c2)cc1 [compound 287]
4,1 to 100 nM,Cc1ccc(Cl)c(Oc2ccc(Nc3snc(O)c3C(=N)NC(C)CO)cc2)c1 (stereo not drawn) [compound 288]
5,1 to 100 nM,Cc1cccc(Oc2ccc(Nc3snc(O)c3C(=N)NC(C)CO)cc2)c1 (stereo not drawn) [compound 289]
6,1 to 100 nM,CC(C)NC(=N)c1c(O)nsc1Nc1ccc(Oc2ccccc2Br)c(Cl)c1 [compound 290]
7,1 to 100 nM,Cc1cccc(Oc2ccc(Nc3snc(O)c3C(=N)NC(C)C)cc2)c1 [compound 291]
8,1 to 100 nM,Cc1ccc(Cl)c(Oc2ccc(Nc3snc(O)c3C(=N)NC(C)C)cc2)c1 [compound 292]
9,1 to 100 nM,CC(C)NC(=N)c1c(O)nsc1Nc1ccc(Oc2ccccc2Br)cc1 [compound 293]
10,100 to 500 nM,CC(C)NC(=N)c1c(O)nsc1Nc1ccc(Oc2cc(C(F)(F)F)ccc2Cl)cc1 [compound 294]
11,1 to 100 nM,CC(CO)NC(=N)c1c(O)nsc1Nc1ccc(Oc2ccccc2Br)cc1 (stereo not drawn) [compound 295]
12,100 to 500 nM,CC(C)NC(=N)c1c(O)nsc1Nc1ccc(Oc2ccc(F)cc2Cl)cc1 [compound 296]
13,100 to 500 nM,CC(C)NC(=N)c1c(O)nsc1Nc1ccc(Oc2ccc(F)cc2Cl)c(Cl)c1 [compound 297]
14,100 to 500 nM,CC(C)NC(=N)c1c(O)nsc1Nc1ccc(Oc2ccc(O)cc2)cc1 [compound 298]
15,1 to 100 nM,Cc1ccccc1Oc1ccc(Nc2snc(O)c2C(=N)NC(C)CO)cc1 (stereo not drawn) [compound 300]
16,1 to 100 nM,Cc1ccccc1Oc1ccc(Nc2snc(O)c2C(=N)NC(C)C)cc1 [compound 301]
17,1 to 100 nM,CC(CO)NC(=N)c1c(O)nsc1Nc1ccc(Oc2ccccc2F)c(F)c1 (stereo not drawn) [compound 303]
18,1 to 100 nM,Cc1ccc(Cl)cc1Oc1ccc(Nc2snc(O)c2C(=N)NC(C)CO)cc1 (stereo not drawn) [compound 304]
19,1 to 100 nM,CC(CO)NC(=N)c1c(O)nsc1Nc1ccc(Oc2ccccc2)c(F)c1 (stereo not drawn) [compound 306]
20,1 to 100 nM,CC(C)NC(=N)c1c(O)nsc1Nc1ccc(Oc2ccccc2)c(F)c1 [compound 307]
21,100 to 500 nM,CC(C)NC(=N)c1c(O)nsc1Nc1ccc(Oc2cc(F)ccc2Cl)cc1 [compound 308]

row,IC50,Compound
1,> 500 nM,CNC(=N)c1c(O)nsc1Nc1ccc(Oc2ccccc2)c(F)c1 [compound 309]
2,1 to 100 nM,CC(C)NC(=N)c1c(O)nsc1Nc1ccc(Oc2ccccc2F)c(F)c1 [compound 310]
3,100 to 500 nM,Cc1ccc(Cl)cc1Oc1ccc(Nc2snc(O)c2C(=N)NC(C)C)cc1 [compound 311]
4,> 500 nM,CC(C)NC(=N)c1c(O)nsc1Nc1ccc(Oc2cc(Cl)ccc2Cl)cc1 [compound 313]
5,> 500 nM,CC(C)NC(=N)c1c(O)nsc1Nc1ccc(-n2cccn2)cc1 [compound 314]
6,> 500 nM,CC(CO)NC(=N)c1c(O)nsc1Nc1ccc(-n2cccn2)cc1 (stereo not drawn) [compound 315]
7,1 to 100 nM,Cc1cc(Nc2snc(O)c2C(=N)NC(C)C)ccc1Oc1ccccc1Cl [compound 316]
8,100 to 500 nM,Cc1cc(Nc2snc(O)c2C(=N)NC(C)C)ccc1Oc1ccccc1 [compound 317]
9,100 to 500 nM,CC(C)NC(=N)c1c(O)nsc1Nc1ccc(Oc2c(F)ccc(F)c2Cl)cc1 [compound 318]
10,1 to 100 nM,CC(C)NC(=N)c1c(O)nsc1Nc1ccc(Oc2cc(F)ccc2Cl)c(F)c1 [compound 319]
11,1 to 100 nM,CC(C)NC(=N)c1c(O)nsc1Nc1ccc(Oc2ccc(Cl)cc2Cl)c(F)c1 [compound 320]
12,1 to 100 nM,CC(CO)NC(=N)c1c(O)nsc1Nc1ccc(Oc2cc(F)ccc2Cl)c(F)c1 (stereo not drawn) [compound 322]
13,100 to 500 nM,CC(CO)NC(=N)c1c(O)nsc1Nc1ccc(Oc2c(F)ccc(F)c2Cl)cc1 (stereo not drawn) [compound 323]
14,100 to 500 nM,Cc1cc(Nc2snc(O)c2C(=N)NC(C)CO)ccc1Oc1ccccc1 (stereo not drawn) [compound 324]
15,> 500 nM,Cc1ccccc1Oc1ccc(Nc2snc(O)c2C(=N)NC(C)CO)cc1C (stereo not drawn) [compound 325]
16,1 to 100 nM,CC(C)NC(=N)c1c(O)nsc1Nc1ccc(Oc2cccc(F)c2F)cc1 [compound 326]
17,1 to 100 nM,CC(C)NC(=N)c1c(O)nsc1Nc1ccc(Oc2cc(F)cc(F)c2Cl)c(F)c1 [compound 328]
18,1 to 100 nM,CC(C)NC(=N)c1c(O)nsc1Nc1ccc(Oc2cc(F)cc(F)c2Cl)cc1 [compound 329]
19,1 to 100 nM,CC(C)NC(=N)c1c(O)nsc1Nc1ccc(Oc2ccc(Br)cc2)c(F)c1 [compound 330]
20,1 to 100 nM,CC(C)NC(=N)c1c(O)nsc1Nc1ccc(Oc2cc(C(F)(F)F)cc(C(F)(F)F)c2)cc1 [compound 331]
21,100 to 500 nM,CC(CO)NC(=N)c1c(O)nsc1Nc1ccc(Oc2cc(C(F)(F)F)cc(C(F)(F)F)c2)cc1 (stereo not drawn) [compound 332]
